For four molecules, IC50 and viability, T/C results are on record in PubChem BioAssay AID2060336 (Molecular Pharmacology Branch, DTP, NCI, 2025).

This experiment concerns 958767-090-R-J1-PDC spheroid growth. The experiment can be described thus: Anticancer human tumor 958767-090-R-J1-PDC patient-derived head and neck squamous carcinoma cell line growth inhibition [IpAb]. The following applies: spheroids with HUVEC and MSC; for viability, T/C: stronger effect = lower value. An outline of the steps: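 Spheroids of 60% malignant cells, 25% HUVEC and 15% MSC were exposed to targeted agents combined with ipatasertib or abemaciclib. Doses started at or near clinical Cmax (10 microM when unknown) and fell in half-log steps.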

Setting [1] is: curve of first compound, second compound 0.1 µM.
[2] abbreviates: curve of first compound, second compound 0.316 µM.
Setting [3] is: curve of first compound, second compound 1 µM.
Where [4] appears, read: second compound 0.1 µM, first compound 0.00949 µM.
The mark [5] stands for this setting: second compound 0.1 µM, first compound 0.03 µM.
The mark [6] stands for this setting: second compound 0.1 µM, first compound 0.0949 µM.
Where [7] appears, read: second compound 0.1 µM, first compound 0.3 µM.
Where [8] appears, read: second compound 0.1 µM, first compound 0.949 µM.
Where [9] appears, read: second compound 0.1 µM, first compound 3 µM.
Setting [10] is: second compound 0.316 µM, first compound 0.00949 µM.
Setting [11] is: second compound 0.316 µM, first compound 0.03 µM.
Where [12] appears, read: second compound 0.316 µM, first compound 0.0949 µM.
Setting [13] is: second compound 0.316 µM, first compound 0.3 µM.
The mark [14] stands for this setting: second compound 0.316 µM, first compound 0.949 µM.
The mark [15] stands for this setting: second compound 0.316 µM, first compound 3 µM.
[16] abbreviates: second compound 1 µM, first compound 0.00949 µM.
Where [17] appears, read: second compound 1 µM, first compound 0.03 µM.
The mark [18] stands for this setting: second compound 1 µM, first compound 0.0949 µM.
Setting [19] is: second compound 1 µM, first compound 0.3 µM.
Setting [20] is: second compound 1 µM, first compound 0.949 µM.
Setting [21] is: second compound 1 µM, first compound 3 µM.

pIC50: −log10 of the molar value. Where “and” joins values, the source holds several entries; their conditions need not be identical. Equal values may be shown once.
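Throughout, for viability, T/C: 100% = DMSO vehicle control wells.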

Regarding `CC(C)(C)c1cnc(CSc2cnc(NC(=O)C3CCNCC3)s2)o1` + CC(C)NCC(C(=O)N1CCN(c2ncnc3c2C(C)CC3O)CC1)c1ccc(Cl)cc1, the negative logarithm of the IC50 (pIC50) is, setting by setting: under setting [1], 6.92; under setting [2], 6.94; under setting [3], 7.02; (curve of first compound, second compound 3.16 µM) 7.00; (curve of first compound, second compound 10 µM) 7.39. Moreover, the viability, T/C runs as follows: under setting [4], 98.5%; under setting [5], 95.1%; under setting [6], 61.2%; under setting [7], 3.88%; under setting [8], 2.72%; under setting [9], 2.41%. Further, the viability, T/C under setting [10] was 80.6%; the viability, T/C under setting [11] was 82.5%; the viability, T/C under setting [12] is 59.5%; the viability, T/C under setting [13] was 2.24%; the viability, T/C under setting [14] is 2.31%; the viability, T/C under setting [15] is 2.18%. Also, the viability, T/C is, setting by setting: under setting [16], 72%; under setting [17], 68%; under setting [18], 50.4%; under setting [19], 1.77%; under setting [20], 1.65%; under setting [21], 2.3%. Besides, the viability, T/C runs as follows: (second compound 3.16 µM, first compound 0.00949 µM) 63.6%; (second compound 3.16 µM, first compound 0.03 µM) 62.9%; (second compound 3.16 µM, first compound 0.0949 µM) 52.6%; (second compound 3.16 µM, first compound 0.3 µM) 1.26%; (second compound 3.16 µM, first compound 0.949 µM) 1.8%; (second compound 3.16 µM, first compound 3 µM) 1.85%. Moreover, the viability, T/C by setting is: (second compound 10 µM, first compound 0.00949 µM) 52.6%; (second compound 10 µM, first compound 0.03 µM) 68.9%; (second compound 10 µM, first compound 0.0949 µM) 21.1%; (second compound 10 µM, first compound 0.3 µM) 1.62%; (second compound 10 µM, first compound 0.949 µM) 1.38%; (second compound 10 µM, first compound 3 µM) 1.87%.

As to `CC(C)(C)c1cnc(CSc2cnc(NC(=O)C3CCNCC3)s2)o1` + CCN1CCN(Cc2ccc(Nc3ncc(F)c(-c4cc(F)c5nc(C)n(C(C)C)c5c4)n3)nc2)CC1, the negative logarithm of the IC50 (pIC50) (curve of first compound, second compound 0.01 µM) is 6.84; the pIC50 (curve of first compound, second compound 0.0316 µM) was 6.87; the pIC50 under setting [1] is 7.03; the pIC50 under setting [2] is 7.37; the pIC50 under setting [3] was 7.32. Further, the viability, T/C is, setting by setting: (second compound 0.01 µM, first compound 0.00949 µM) 106%; (second compound 0.01 µM, first compound 0.03 µM) 97.6%; (second compound 0.01 µM, first compound 0.0949 µM) 76.5%; (second compound 0.01 µM, first compound 0.3 µM) 2.6%; (second compound 0.01 µM, first compound 0.949 µM) 2.82%; (second compound 0.01 µM, first compound 3 µM) 2.81%. Moreover, the viability, T/C is 98.5% (second compound 0.0316 µM, first compound 0.00949 µM); 84.2% (second compound 0.0316 µM, first compound 0.03 µM); 70.5% (second compound 0.0316 µM, first compound 0.0949 µM); 1.81% (second compound 0.0316 µM, first compound 0.3 µM); 2.35% (second compound 0.0316 µM, first compound 0.949 µM); 1.86% (second compound 0.0316 µM, first compound 3 µM). The viability, T/C is 76.2% under setting [4]; 63.3% under setting [5]; 50.1% under setting [6]; 2.58% under setting [7]; 1.95% under setting [8]; 2.75% under setting [9]. Moreover, the viability, T/C is 71.2% under setting [10]; 59.6% under setting [11]; 27.2% under setting [12]; 1.79% under setting [13]; 3.55% under setting [14]; 3.21% under setting [15]. Also, the viability, T/C was 91.7% under setting [16]; 78.2% under setting [17]; 9.34% under setting [18]; 3.35% under setting [19]; 3.92% under setting [20]; 2.96% under setting [21].

For `CCN1CCN(Cc2ccc(Nc3ncc(F)c(-c4cc(F)c5nc(C)n(C(C)C)c5c4)n3)nc2)CC1`, the viability, T/C was 63.6% [middle of 13 runs] (compound 0.1 µM) and 80.7% [middle of 12 runs] (compound 1 µM). For the setting “compound alone, run of 06/01/2021”, the negative logarithm of the IC50 (pIC50) was below 6.00.

As to `Cn1nccc1Nc1nccc(-c2ccn(C(CO)c3ccc(Cl)c(F)c3)c(=O)c2)n1` (stereo not given), the viability, T/C runs as follows: (compound 0.0316 µM) 92.1% and 96.5%; (compound 0.1 µM) 72.6% and 82.8%; (compound 0.316 µM) 71.3% and 72.6%; (compound 1 µM) 55.1% and 69.1%; (compound 3.16 µM) 54.4% and 50%; (compound 10 µM) 21.6% and 26.4%. Further, the negative logarithm of the IC50 (pIC50) (curve of compound) is 5.70 and 5.54.

In general, pIC50 refers to −log10 of the IC50, conventionally taken in molar units. The viability, T/C is the ratio of treated to control.
